Experimental data as given in patent US10323018B2 (Millennium Pharmaceuticals, Inc., priority 2015, dated 2019).

Assays:
[1] = tested on: PC3 cells; assay: PC3 growth inhibition (Cell-titer glo, 72 hours); format: cell-based; details: Homo sapiens, PC-3, 72 h, read-out: Percent Viability, PC3 cells, compound concentration 1.667 μM, 72 hours
Outline: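 After 72 h compound treatment in AIM serum-free medium (37 °C, 5% CO2), viability of overnight-plated PC3 cells (8×10^4 cells/ml, RPMI1640-maintained) is read by CellTiter-Glo luminescence versus DMSO. Curves give GI50, LD50 or single-concentration % remaining viability.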

[2] = target: hNAMPT protein (Homo sapiens (Human), UniProt P43490); assay: NAMPT enzyme assay (TR-FRET/HTRF with BodiPY ligand); format: binding; details: for inhibition at 1 µM: NAMPT inhibition at compound concentration 1 μM, read-out: Percent Inhibition; for IC50: NAMPT inhibition, IC50 range class
Outline: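 Ligand displacement by TR-FRET: BodiPY emission (520 nm) over terbium (486 nm) after 320 nm excitation. Compound, BodiPY ligand, hNAMPT and anti-6His-Tb incubated 1 h at room temperature, dark, at pH 7.5. Percent inhibition computed versus DMSO; concentration-response curves fitted for IC50.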

hNAMPT protein, sequence (P43490 whole entry): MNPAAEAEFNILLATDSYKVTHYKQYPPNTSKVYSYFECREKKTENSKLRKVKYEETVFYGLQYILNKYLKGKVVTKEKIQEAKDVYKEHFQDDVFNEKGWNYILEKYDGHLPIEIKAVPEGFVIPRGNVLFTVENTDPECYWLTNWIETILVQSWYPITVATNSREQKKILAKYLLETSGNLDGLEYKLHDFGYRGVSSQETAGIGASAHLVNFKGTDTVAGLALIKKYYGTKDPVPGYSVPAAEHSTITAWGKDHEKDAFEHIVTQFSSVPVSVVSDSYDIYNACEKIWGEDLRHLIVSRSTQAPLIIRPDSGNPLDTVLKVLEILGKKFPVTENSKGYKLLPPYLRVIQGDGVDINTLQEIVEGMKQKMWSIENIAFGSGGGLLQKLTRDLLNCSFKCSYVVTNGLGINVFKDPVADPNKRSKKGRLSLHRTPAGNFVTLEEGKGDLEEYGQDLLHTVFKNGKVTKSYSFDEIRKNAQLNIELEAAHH

Compound | viability at 1.667 µM [1] [%] | inhibition at 1 µM [2] [%] | IC50 [2] [nM]
CCOc1cc(-c2ccc(F)cc2)nc2cc(C(=O)NCc3ccn4ncnc4c3)ccc12 [Compound I-130, 4-ethoxy-2-(4-fluorophenyl)-N-([1,2,4]triazolo[1,5-a]pyridin-7-ylmethyl)quinoline-7-carboxamide] | 2 | 100 | < 10
CCOc1cc(-c2ccc(F)cc2)nc2cc(C(=O)NCCc3nnc[nH]3)ccc12 [Compound I-131, 4-ethoxy-2-(4-fluorophenyl)-N-[2-(4H-1,2,4-triazol-3-yl)ethyl]quinoline-7-carboxamide] | 3 | 99 | 10 to 50
CCOc1cc(-c2ccc(F)cc2)nc2cc(C(=O)NCCc3c[nH]nc3C)ccc12 [Compound I-132, 4-ethoxy-2-(4-fluorophenyl)-N-[2-(3-methyl-1H-pyrazol-4-yl)ethyl]quinoline-7-carboxamide] | 3 | > 99 | < 10
CCOc1cc(-c2ccc(F)cc2)nc2cc(C(=O)NCCCc3n[nH]nc3C)ccc12 [Compound I-133, 4-ethoxy-2-(4-fluorophenyl)-N-[3-(5-methyl-2H-1,2,3-triazol-4-yl)propyl]quinoline-7-carboxamide] | 2 | > 99 | < 10
CCOc1cc(-c2ccc(F)cc2)nc2cc(C(=O)NCCc3cc(N)[nH]n3)ccc12 [Compound I-134, N-[2-(5-amino-1H-pyrazol-3-yl)ethyl]-4-ethoxy-2-(4-fluorophenyl)quinoline-7-carboxamide] | 3 | 93 | 10 to 50
CCOc1cc(C2CCOCC2)nc2cc(C(=O)NCCCc3nnc[nH]3)ccc12 [Compound I-135, 4-ethoxy-2-(tetrahydro-2H-pyran-4-yl)-N-[3-(4H-1,2,4-triazol-3-yl)propyl]quinoline-7-carboxamide] | 4 | 71 | > 100
CCOc1cc(-c2cc(C)nc(OC)c2)nc2cc(C(=O)NCCCc3nnc[nH]3)ccc12 [Compound I-136, 4-ethoxy-2-(2-methoxy-6-methylpyridin-4-yl)-N-[3-(4H-1,2,4-triazol-3-yl)propyl]quinoline-7-carboxamide] | 2 | 98 | < 10
CCOc1cc(-c2cccc(S(C)(=O)=O)c2)nc2cc(C(=O)NCCCc3nnc[nH]3)ccc12 [Compound I-137, 4-ethoxy-2-[3-(methylsulfonyl)phenyl]-N-[3-(4H-1,2,4-triazol-3-yl)propyl]quinoline-7-carboxamide] | 2 | 97 | 10 to 50
CCOc1cc(-c2ccc(OC)nc2C)nc2cc(C(=O)NCCCc3nnc[nH]3)ccc12 [Compound I-138, 4-ethoxy-2-(6-methoxy-2-methylpyridin-3-yl)-N-[3-(4H-1,2,4-triazol-3-yl)propyl]quinoline-7-carboxamide] | 2 | 89 | 50 to 100
CCOc1cc(-c2ccncc2OC)nc2cc(C(=O)NCCCc3nnc[nH]3)ccc12 [Compound I-139, 4-ethoxy-2-(3-methoxypyridin-4-yl)-N-[3-(4H-1,2,4-triazol-3-yl)propyl]quinoline-7-carboxamide] | 2 | 99 | 10 to 50
CCOc1cc(C2=CCOCC2)nc2cc(C(=O)NCCCc3nnc[nH]3)ccc12 [Compound I-140, 2-(3,6-dihydro-2H-pyran-4-yl)-4-ethoxy-N-[3-(4H-1,2,4-triazol-3-yl)propyl]quinoline-7-carboxamide] | 2 | 91 | 50 to 100
CCOc1cc(-c2ccc(F)cc2)nc2cc(C(=O)NCc3nc(N)n[nH]3)ccc12 [Compound I-141, N-[(3-amino-1H-1,2,4-triazol-5-yl)methyl]-4-ethoxy-2-(4-fluorophenyl)quinoline-7-carboxamide] | 9 | 82 | > 100
CCOc1cc(-c2ccc(F)cc2)nc2cc(C(=O)NCCc3nnc(N)[nH]3)ccc12 [Compound I-142, N-[2-(5-amino-4H-1,2,4-triazol-3-yl)ethyl]-4-ethoxy-2-(4-fluorophenyl)quinoline-7-carboxamide] | 14 | 89 | > 100
CCOc1cc(-c2ccc(OC)nc2OC)nc2cc(C(=O)NCCCc3nnc[nH]3)ccc12 [Compound I-143, 2-(2,6-dimethoxypyridin-3-yl)-4-ethoxy-N-[3-(4H-1,2,4-triazol-3-yl)propyl]quinoline-7-carboxamide] | 2 | 97 | 10 to 50
CCOc1cc(-c2cccnc2OC)nc2cc(C(=O)NCCc3c[nH]nc3C)ccc12 [Compound I-144, 4-ethoxy-2-(2-methoxypyridin-3-yl)-N-[2-(3-methyl-1H-pyrazol-4-yl)ethyl]quinoline-7-carboxamide] | 2 | 94 | 10 to 50
CCOc1cc(-c2cnc(OC)cc2C)nc2cc(C(=O)NCCCc3nnc[nH]3)ccc12 [Compound I-145, 4-ethoxy-2-(6-methoxy-4-methyl-3-pyridyl)-N-[3-(4H-1,2,4-triazol-3-yl)propyl]quinoline-7-carboxamide] | 2 | 86 | > 100
CCOc1cc(-c2ccnc(C)c2)nc2cc(C(=O)NCCc3c[nH]nc3C)ccc12 [Compound I-146, 4-ethoxy-N-[2-(3-methyl-1H-pyrazol-4-yl)ethyl]-2-(2-methylpyridin-4-yl)quinoline-7-carboxamide] | 2 | 87 | 50 to 100
CCCc1cc(-c2ccc(F)cc2)nc2cc(C(=O)NCCCc3cc[nH]n3)ccc12 [Compound I-147, 2-(4-fluorophenyl)-4-propyl-N-[3-(1H-pyrazol-3-yl)propyl]quinoline-7-carboxamide] | 2 | 92 | 50 to 100
O=C(NCCCc1nnc[nH]1)c1ccc2c(-n3ccnc3)cc(-c3ccc(F)cc3)nc2c1 [Compound I-148, 2-(4-fluorophenyl)-4-(1H-imidazol-1-yl)-N-[3-(4H-1,2,4-triazol-3-yl)propyl]quinoline-7-carboxamide] | 1 | 99 | < 10
CCOc1cc(-c2ccnc(C)c2)nc2cc(C(=O)NCCCc3ccn[nH]3)ccc12 [Compound I-149, 4-ethoxy-2-(2-methylpyridin-4-yl)-N-[3-(1H-pyrazol-5-yl)propyl]quinoline-7-carboxamide] | 2 | 96 | 10 to 50
CCOc1cc(-c2cccnc2OC)nc2cc(C(=O)NCCCc3ccn[nH]3)ccc12 [Compound I-150, 4-ethoxy-2-(2-methoxypyridin-3-yl)-N-[3-(1H-pyrazol-5-yl)propyl]quinoline-7-carboxamide] | 2 | 95 | 10 to 50
CCNc1cc(-c2ccc(F)cc2)nc2cc(C(=O)NCCCc3nnc[nH]3)ccc12 [Compound I-151, 4-(ethylamino)-2-(4-fluorophenyl)-N-[3-(4H-1,2,4-triazol-3-yl)propyl]quinoline-7-carboxamide] | 3 | 61 | > 100
CCCc1cc(-c2ccc(F)cc2)nc2cc(C(=O)NCCc3c[nH]nc3C)ccc12 [Compound I-152, 2-(4-fluorophenyl)-N-[2-(3-methyl-1H-pyrazol-4-yl)ethyl]-4-propylquinoline-7-carboxamide] | 2 | 84 | > 100
CCOc1cc(-c2ccc(OC)nc2)nc2cc(C(=O)NCCc3cn[nH]c3C)ccc12 [Compound I-153, 4-ethoxy-2-(6-methoxypyridin-3-yl)-N-[2-(5-methyl-1H-pyrazol-4-yl)ethyl]quinoline-7-carboxamide] | 2 | 98 | 10 to 50
CCOc1cc(-c2ccc(OC)nc2)nc2cc(C(=O)NCCCc3ccn[nH]3)ccc12 [Compound I-154, 4-ethoxy-2-(6-methoxypyridin-3-yl)-N-[3-(1H-pyrazol-5-yl)propyl]quinoline-7-carboxamide] | 3 | 96 | 10 to 50
CCOc1cc(-c2ccnc(OC)c2)nc2cc(C(=O)NCCCc3ccn[nH]3)ccc12 [Compound I-155, 4-ethoxy-2-(2-methoxypyridin-4-yl)-N-[3-(1H-pyrazol-5-yl)propyl]quinoline-7-carboxamide] | 2 | 98 | 10 to 50
COCCOc1cc(-c2ccc(F)cc2)nc2cc(C(=O)NCCCc3ncc[nH]3)ccc12 [Compound I-156, 2-(4-fluorophenyl)-N-[3-(1H-imidazol-2-yl)propyl]-4-(2-methoxyethoxy)quinoline-7-carboxamide] | 2 | 100 | < 10
Cc1cc(-c2cc(-c3ccc(F)cc3)c3ccc(C(=O)NCCCc4nnc[nH]4)cc3n2)ccn1 [Compound I-157, N-(3-(4H-1,2,4-triazol-3-yl)propyl)-4-(4-fluorophenyl)-2-(2-methylpyridin-4-yl)quinoline-7-carboxamide] | 5 | 89 | 50 to 100
